Consider 21 compounds from article PMC12668310, “High‐Throughput Synthesis and Screening of a Cyanimide Library Identifies Selective Inhibitors of ISG15‐Specific Protease mUSP18” (Angewandte Chemie (International Ed. in English), 2025).

As usually defined, the inhibition is the change of the read-out against control, counted positive when it falls.

What all share (test): High-throughput screening, Ub-RhoMP, single dose 1.25 µM
Common to all, as to type: biochemical

Assay [1] concerns the target T1, USP32 (Homo sapiens, UniProt Q8NFA0).
T1 construct: (1-1604); His-tag (N); made in house
The conditions noted are these: for %inhibition USP32: crude in-plate synthesized compound, 1.25 µM assuming full conversion; for inhibition at 1.25 µM: individual amine building block (plate NCN-5), read-out: BB %inhibition USP32. On the procedure: (§1) Since the in‐plate synthesis was conducted in 1536‐well Echo plates, the compounds could readily be transferred from these plates into 1536‐well assay plates using acoustic liquid dispensing (Figure 2a) and subjected to HTS. We screened the whole 7536 compound library against a panel of twelve enzymes, including three DUBs from the UCH family, two DUBs from the OTU family, five DUBs from the USP family, plus ISG15 protease USP18, and SUMO protease SENP1. Each compound was tested at a single dose of 1.25 µM, assuming full conversion (10 mM in DMSO of the formed products) during the in‐plate synthesis, using the fluorogenic assay described above. […] The compounds are sorted by the amine building blocks (BB1‐16), and within each BB, sorted by carboxylic acid (CA1‐471), thereby providing a comprehensive and systematic overview of the overall inhibition by each BB and CA combination. Some interesting patterns can be obtained from this map. […] Indeed, BB10 is the privileged scaffold for UCHL1 as it originates from UCHL1 inhibitor 5 (Figure 1). […] On the other hand, OTUD1 and USP32 show a much higher hit rate, and this is even more pronounced for USP30 and ISG15 protease mUSP18, each showing many active compounds distributed over several BB's.
(§2) Purified recombinant enzymes used in this study
(§3) High-throughput screening
(§4) The screens were performed at room temperature in “flat bottom, non-treated, black […]
(§5) µM. The compounds (10 nL each) were transferred from the 1 mM daughter plates to the […]
(§6) Four wells containing DMSO
(§7) (10 nL) and four wells containing NEM (10 mM final concentration) were used in each plate […]
(§8) solution (1.33x final concentration) was added to each well, followed by incubation for 30 min.
(§9) Next, 2 µL of a substrate solution (4x final concentration) was added to each well (Ub-RhoMP[2]
(§10) After 1h or 2h incubation the
(§11) The percentage inhibition was calculated for each well using the […]
(§12) Where FIx is the fluorescence intensity of each well, FIpos is the average fluorescence intensity of the positive (NEM) control wells, and FIneg is the average fluorescence intensity of the negative (DMSO) control wells.

Assay [2] deals with T2, USP24 (Homo sapiens, UniProt Q9UPU5).
T2 construct: (1-2620); His10; purchased Biotechne E-616
The conditions noted are these: for %inhibition USP24: crude in-plate synthesized compound, 1.25 µM assuming full conversion; for inhibition at 1.25 µM: individual amine building block (plate NCN-5), read-out: BB %inhibition USP24. On the procedure:
as §1, §2, §3, §4, §5, §6, §7, §8, §9, §10, §11, §12

The target of assay [3] is T3, UCHL1 (Homo sapiens, UniProt P09936).
T3 construct: (1-223); made in house
T3 sequence (P09936 1-223): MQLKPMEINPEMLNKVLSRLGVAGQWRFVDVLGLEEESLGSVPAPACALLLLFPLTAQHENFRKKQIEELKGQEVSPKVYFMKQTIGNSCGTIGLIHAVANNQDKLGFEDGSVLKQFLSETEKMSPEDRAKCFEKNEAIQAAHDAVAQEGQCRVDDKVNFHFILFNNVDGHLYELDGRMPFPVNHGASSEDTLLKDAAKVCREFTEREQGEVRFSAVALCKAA
The note with it: for %inhibition UCHL1: crude in-plate synthesized compound, 1.25 µM assuming full conversion; for inhibition at 1.25 µM: individual amine building block (plate NCN-5), read-out: BB %inhibition UCHL1. On the procedure:
as §1, §2, §3, §4, §5, §6, §7, §8, §9, §10, §11, §12

The target in assay [4] is T4, UCHL3 (Homo sapiens, UniProt P15374).
T4 construct: (1-230); made in house
T4 sequence (P15374 1-230): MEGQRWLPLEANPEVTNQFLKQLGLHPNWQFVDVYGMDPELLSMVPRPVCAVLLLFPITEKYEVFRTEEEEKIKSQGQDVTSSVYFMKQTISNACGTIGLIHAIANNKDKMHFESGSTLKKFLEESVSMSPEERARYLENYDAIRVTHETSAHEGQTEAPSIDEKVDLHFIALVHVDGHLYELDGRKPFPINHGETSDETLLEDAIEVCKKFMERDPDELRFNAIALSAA
The note with it: for %inhibition UCHL3: crude in-plate synthesized compound, 1.25 µM assuming full conversion; for inhibition at 1.25 µM: individual amine building block (plate NCN-5), read-out: BB %inhibition UCHL3. On the procedure: as §1, §2, §3, §4, §5, §6, §7, §8, §9, §10, §11, §12

The target of assay [5] is T5, UCHL5 (Homo sapiens, UniProt Q9Y5K5).
T5 construct: (1-329); purchased Novus biochemicals NBP1-72315
T5 sequence (Q9Y5K5 1-329): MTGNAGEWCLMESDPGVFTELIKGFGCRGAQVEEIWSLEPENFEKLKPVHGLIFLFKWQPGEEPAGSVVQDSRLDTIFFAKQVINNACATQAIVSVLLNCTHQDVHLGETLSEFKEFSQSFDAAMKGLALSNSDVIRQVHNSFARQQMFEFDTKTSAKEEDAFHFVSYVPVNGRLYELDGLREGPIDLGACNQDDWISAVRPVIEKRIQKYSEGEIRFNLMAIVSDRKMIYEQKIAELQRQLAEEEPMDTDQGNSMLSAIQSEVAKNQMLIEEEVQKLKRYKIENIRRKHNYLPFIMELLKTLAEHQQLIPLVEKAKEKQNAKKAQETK
The conditions noted are these: for %inhibition UCHL5: crude in-plate synthesized compound, 1.25 µM assuming full conversion; for inhibition at 1.25 µM: individual amine building block (plate NCN-5), read-out: BB %inhibition UCHL5. On the procedure:
as §1, §2, §3, §4, §5, §6, §7, §8, §9, §10, §11, §12

T1 sequence (Q8NFA0 whole entry): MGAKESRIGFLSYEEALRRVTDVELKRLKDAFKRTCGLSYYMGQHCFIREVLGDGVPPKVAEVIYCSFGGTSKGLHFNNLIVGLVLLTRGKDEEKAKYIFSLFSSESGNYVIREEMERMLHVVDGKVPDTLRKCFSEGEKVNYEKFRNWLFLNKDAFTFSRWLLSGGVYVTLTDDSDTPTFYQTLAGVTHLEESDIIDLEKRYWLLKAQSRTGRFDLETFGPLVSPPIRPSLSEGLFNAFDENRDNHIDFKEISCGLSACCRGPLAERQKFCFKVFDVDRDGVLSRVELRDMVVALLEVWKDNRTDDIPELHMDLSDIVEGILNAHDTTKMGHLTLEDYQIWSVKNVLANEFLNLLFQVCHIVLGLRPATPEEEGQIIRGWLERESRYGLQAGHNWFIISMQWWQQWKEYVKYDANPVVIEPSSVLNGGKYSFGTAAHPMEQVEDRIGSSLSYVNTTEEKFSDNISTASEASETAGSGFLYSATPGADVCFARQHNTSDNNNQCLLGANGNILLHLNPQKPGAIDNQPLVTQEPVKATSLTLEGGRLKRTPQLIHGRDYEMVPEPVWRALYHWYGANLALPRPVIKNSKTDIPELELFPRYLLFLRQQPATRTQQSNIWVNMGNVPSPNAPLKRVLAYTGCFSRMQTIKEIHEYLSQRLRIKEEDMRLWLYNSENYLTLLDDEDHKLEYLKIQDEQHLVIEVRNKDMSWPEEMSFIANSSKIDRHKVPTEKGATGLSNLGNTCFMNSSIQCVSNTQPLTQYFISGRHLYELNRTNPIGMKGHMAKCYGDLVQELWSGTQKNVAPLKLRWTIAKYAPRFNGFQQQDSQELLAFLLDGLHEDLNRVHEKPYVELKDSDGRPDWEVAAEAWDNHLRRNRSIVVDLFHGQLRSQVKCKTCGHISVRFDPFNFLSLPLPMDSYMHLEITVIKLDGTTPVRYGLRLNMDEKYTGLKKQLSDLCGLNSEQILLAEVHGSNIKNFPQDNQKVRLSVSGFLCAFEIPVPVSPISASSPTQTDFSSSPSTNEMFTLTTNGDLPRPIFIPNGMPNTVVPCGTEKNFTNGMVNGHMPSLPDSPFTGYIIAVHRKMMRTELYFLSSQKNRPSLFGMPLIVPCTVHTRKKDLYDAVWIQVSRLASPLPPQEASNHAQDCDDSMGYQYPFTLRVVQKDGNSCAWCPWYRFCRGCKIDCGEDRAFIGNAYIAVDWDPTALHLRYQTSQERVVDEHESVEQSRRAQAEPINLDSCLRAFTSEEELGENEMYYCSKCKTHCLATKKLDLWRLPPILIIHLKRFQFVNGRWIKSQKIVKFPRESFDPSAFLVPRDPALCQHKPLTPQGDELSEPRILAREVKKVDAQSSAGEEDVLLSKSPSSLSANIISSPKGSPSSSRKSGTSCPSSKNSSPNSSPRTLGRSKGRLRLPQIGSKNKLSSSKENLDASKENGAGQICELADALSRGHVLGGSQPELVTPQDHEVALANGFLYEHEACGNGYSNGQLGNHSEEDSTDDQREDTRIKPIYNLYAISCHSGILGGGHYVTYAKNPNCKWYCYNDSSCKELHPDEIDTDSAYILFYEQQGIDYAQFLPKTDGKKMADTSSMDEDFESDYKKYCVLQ
T2 sequence (Q9UPU5 whole entry): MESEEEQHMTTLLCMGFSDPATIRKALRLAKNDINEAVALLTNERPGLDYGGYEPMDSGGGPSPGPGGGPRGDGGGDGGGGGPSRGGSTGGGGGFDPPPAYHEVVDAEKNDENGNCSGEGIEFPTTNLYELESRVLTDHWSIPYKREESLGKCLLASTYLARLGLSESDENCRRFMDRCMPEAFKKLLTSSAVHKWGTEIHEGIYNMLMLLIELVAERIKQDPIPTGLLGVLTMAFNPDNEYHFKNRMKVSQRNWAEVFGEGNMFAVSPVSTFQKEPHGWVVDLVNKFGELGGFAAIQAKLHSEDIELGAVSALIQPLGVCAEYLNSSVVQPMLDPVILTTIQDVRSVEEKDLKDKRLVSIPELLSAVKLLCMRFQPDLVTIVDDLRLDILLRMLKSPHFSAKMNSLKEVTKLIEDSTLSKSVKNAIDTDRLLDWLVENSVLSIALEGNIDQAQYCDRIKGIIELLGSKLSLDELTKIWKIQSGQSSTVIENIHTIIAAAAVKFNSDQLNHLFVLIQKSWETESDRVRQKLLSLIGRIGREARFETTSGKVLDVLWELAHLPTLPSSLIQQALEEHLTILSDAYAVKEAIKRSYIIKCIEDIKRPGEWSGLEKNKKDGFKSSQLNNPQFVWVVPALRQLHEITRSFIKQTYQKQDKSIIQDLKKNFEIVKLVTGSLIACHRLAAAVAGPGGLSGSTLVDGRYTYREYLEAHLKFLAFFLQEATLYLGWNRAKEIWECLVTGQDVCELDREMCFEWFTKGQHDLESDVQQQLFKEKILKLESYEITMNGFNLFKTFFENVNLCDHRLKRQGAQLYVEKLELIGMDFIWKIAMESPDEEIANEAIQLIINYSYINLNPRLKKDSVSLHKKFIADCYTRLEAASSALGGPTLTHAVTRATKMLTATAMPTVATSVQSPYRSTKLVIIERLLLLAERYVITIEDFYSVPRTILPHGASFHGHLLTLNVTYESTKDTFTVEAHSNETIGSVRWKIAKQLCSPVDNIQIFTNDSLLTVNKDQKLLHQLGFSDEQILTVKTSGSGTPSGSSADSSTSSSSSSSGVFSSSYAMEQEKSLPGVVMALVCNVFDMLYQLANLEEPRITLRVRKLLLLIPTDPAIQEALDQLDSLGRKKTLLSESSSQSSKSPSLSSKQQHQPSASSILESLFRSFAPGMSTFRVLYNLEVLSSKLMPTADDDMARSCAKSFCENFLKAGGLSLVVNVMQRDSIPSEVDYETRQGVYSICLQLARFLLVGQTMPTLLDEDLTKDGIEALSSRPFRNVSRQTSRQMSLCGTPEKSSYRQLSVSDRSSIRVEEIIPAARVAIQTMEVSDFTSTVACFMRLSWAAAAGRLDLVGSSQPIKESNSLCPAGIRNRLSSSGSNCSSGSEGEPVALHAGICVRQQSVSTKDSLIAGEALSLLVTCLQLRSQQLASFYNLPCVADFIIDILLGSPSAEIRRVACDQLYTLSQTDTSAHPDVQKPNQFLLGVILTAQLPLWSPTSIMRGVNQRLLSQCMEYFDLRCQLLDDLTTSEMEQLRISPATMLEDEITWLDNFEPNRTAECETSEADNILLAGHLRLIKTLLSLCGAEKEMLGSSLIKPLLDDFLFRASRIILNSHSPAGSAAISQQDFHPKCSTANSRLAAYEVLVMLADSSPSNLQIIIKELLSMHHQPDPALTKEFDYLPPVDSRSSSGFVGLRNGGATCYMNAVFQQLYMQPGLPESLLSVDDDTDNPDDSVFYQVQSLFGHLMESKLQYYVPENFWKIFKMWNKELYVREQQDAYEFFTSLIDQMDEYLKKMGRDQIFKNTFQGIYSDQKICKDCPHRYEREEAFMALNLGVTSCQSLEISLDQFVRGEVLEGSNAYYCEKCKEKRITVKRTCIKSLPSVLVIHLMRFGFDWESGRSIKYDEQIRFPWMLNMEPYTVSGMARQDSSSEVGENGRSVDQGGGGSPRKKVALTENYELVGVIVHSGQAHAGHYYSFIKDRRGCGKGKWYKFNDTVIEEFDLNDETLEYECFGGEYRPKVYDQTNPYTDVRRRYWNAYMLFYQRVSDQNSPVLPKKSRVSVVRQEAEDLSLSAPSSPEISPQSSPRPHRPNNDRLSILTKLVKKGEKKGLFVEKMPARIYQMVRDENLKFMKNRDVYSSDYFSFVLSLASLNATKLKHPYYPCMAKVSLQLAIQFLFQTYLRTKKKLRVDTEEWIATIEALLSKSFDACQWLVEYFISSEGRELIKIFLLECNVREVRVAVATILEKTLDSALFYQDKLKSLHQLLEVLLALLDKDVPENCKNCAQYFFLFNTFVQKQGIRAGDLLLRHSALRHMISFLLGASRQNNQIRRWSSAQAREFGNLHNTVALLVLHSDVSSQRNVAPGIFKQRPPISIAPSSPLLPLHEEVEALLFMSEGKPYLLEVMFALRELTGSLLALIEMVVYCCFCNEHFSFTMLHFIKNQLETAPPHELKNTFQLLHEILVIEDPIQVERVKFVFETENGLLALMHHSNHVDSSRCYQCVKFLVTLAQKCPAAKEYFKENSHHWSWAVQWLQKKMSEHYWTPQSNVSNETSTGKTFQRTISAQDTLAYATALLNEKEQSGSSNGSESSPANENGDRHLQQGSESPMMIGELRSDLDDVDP

For `N#CN1CC[C@@H](NC(=O)c2nc(N3CCCC3)ncc2Cl)C1` [BB01CA90], in assay [1], the “%inhibition USP32” value amounted to 19.4%. In assay [2], the “%inhibition USP24” value is 0.9%. For the same compound, in assay [3], the “%inhibition UCHL1” value was 15.1%. For the same compound, the “%inhibition UCHL3” value in assay [4] was determined as 19.3%. Moreover, in assay [5], the “%inhibition UCHL5” value is 6.9%.
As to `N#CN1CC[C@@H](NC(=O)C(Cc2c[nH]cn2)NS(=O)(=O)c2ccc(Cl)cc2)C1` (stereo partly drawn) [BB01CA91], the “%inhibition USP32” value in assay [1] worked out at 22.5%. In assay [2], the “%inhibition USP24” value was -0.9%. The “%inhibition UCHL1” value in assay [3] is listed as 11.2%. The “%inhibition UCHL3” value in assay [4] came to 16.3%. Moreover, the “%inhibition UCHL5” value in assay [5] came to 8.4%.
Regarding `N#CN1CC[C@@H](NC(=O)Cc2csc(-c3cnccn3)n2)C1` [BB01CA92], in assay [1], the “%inhibition USP32” value was determined as 21.1%. Further, the “%inhibition USP24” value in assay [2] was determined as 3.2%. Besides, the “%inhibition UCHL1” value in assay [3] is on record as 8.8%. In assay [4], the “%inhibition UCHL3” value is on record as 17.1%. The “%inhibition UCHL5” value in assay [5] is 6.2%.
On to `N#CN1CC[C@@H](NC(=O)CCN(Cc2ccccc2)S(=O)(=O)c2c(Cl)cccc2Cl)C1` [BB01CA93], for which the “%inhibition USP32” value in assay [1] is 75.0%. Further, in assay [2], the “%inhibition USP24” value was 9.1%. Further, the “%inhibition UCHL1” value in assay [3] stood at 9.7%. The “%inhibition UCHL3” value in assay [4] came to 16.3%. Further, the “%inhibition UCHL5” value in assay [5] was determined as 5.2%.
Turning to `N#CN1CC[C@@H](NC(=O)c2ncoc2-c2cccs2)C1` [BB01CA94], the “%inhibition USP32” value in assay [1] stood at 15.3%. Besides, the “%inhibition USP24” value in assay [2] is recorded as -1.8%. The “%inhibition UCHL1” value in assay [3] was found to be 8.0%. Also, in assay [4], the “%inhibition UCHL3” value was determined as 16.0%. In assay [5], the “%inhibition UCHL5” value is recorded as 4.4%.
On to `N#CN1CC[C@@H](N)C1` [BB1], for which the inhibition at 1.25 µM in assay [1] is 9.5%; in assay [2], 6.1%; in assay [3], 2.6%; in assay [4], 5.9%; in assay [5], -4.7%.
As to `N#CN1CCC(N)CC1` [BB2], the inhibition at 1.25 µM is 9% in assay [1]; 5.5% in assay [2]; 4% in assay [3]; 3.9% in assay [4]; -3.3% in assay [5].
The like results for `N#CN1CC[C@H](N)C1` [BB3] were, in that order, 8.4%, -1.4%, 1.1%, 0.6% and -5.8%.
On to `N#CN1CCC[C@@H](N)C1` [BB4], for which the inhibition at 1.25 µM is 4.7% in assay [1]; 0.8% in assay [2]; 3.6% in assay [3]; 2% in assay [4]; -6.7% in assay [5].
With `N#CN1CC(N)C1` [BB5], the inhibition at 1.25 µM was 5.3% in assay [1]; 5% in assay [2]; 3.8% in assay [3]; -0.9% in assay [4]; 2.9% in assay [5].
For `N#CN1C[C@H]2C[C@@H](N)C[C@H]2C1` [BB6], the inhibition at 1.25 µM in assay [1] was 6%; in assay [2], 3.1%; in assay [3] it was 0.4%; in assay [4], -4.7%; in assay [5], 2.5%.
For `N#CN1C[C@H]2C[C@H](N)C[C@H]2C1` [BB7] the same measures were 2.8%, -3.9%, 0.7%, -7.4% and -1.4%.
For `N#CN1CCC[C@H](N)C1` [BB8] the same measures were 1.3%, -0.279%, 1%, -2.2% and 4.6%.
For `N#CN1CC[C@@H](NC(=O)c2ccc(CN)cc2)C1` [BB9], the inhibition at 1.25 µM is 2.8% in assay [1]; 0.33% in assay [2]; -0.3% in assay [3]; -2.3% in assay [4]; -9.9% in assay [5].
For `N#CN1CC[C@H](C(=O)Nc2nc3c(s2)CNCC3)C1` [BB10], the inhibition at 1.25 µM in assay [1] is 1.5%; in assay [2] it was -1.8%; in assay [3] it was ~35%; in assay [4] it was -5.1%; in assay [5], -11%.
As for `N#CN1CC[C@H](CN)C1` [BB11], the inhibition at 1.25 µM in assay [1] was -1.5%; in assay [2], -6.5%; in assay [3], -2.6%; in assay [4], -5.7%; in assay [5], -7.1%.
Turning to `N#CN1C[C@@H]2C[C@H]1CN2` [BB12], the inhibition at 1.25 µM in assay [1] is -1.2%; in assay [2] it was -3.7%; in assay [3] it was -1.2%; in assay [4], -4.6%; in assay [5] it was -5.3%.
`N#CN1C[C@H](N)[C@@H](O)C1` [BB13]: the inhibition at 1.25 µM was 1.1% in assay [1]; 5.7% in assay [2]; 0.8% in assay [3]; 8% in assay [4]; 0.225% in assay [5].
Regarding `N#CN1CCC2(CCNC2)C1` (stereo not drawn) [BB14], the inhibition at 1.25 µM in assay [1] was 0.344%; in assay [2], 3.8%; in assay [3] it was 1%; in assay [4] it was 8.6%; in assay [5], -1.4%.
For `N#CN1C[C@@H](F)[C@@H](N)C1` [BB15], the inhibition at 1.25 µM in assay [1] was -3.1%; in assay [2], 5.6%; in assay [3], 1%; in assay [4] it was 1.4%; in assay [5], -6%.
In the case of `N#CN1CCC(n2cc(N)cn2)CC1` [BB16], the inhibition at 1.25 µM in assay [1] is -6.1%; in assay [2], 9.2%; in assay [3] it was 1.3%; in assay [4], 2.3%; in assay [5] it was -7.7%.
